According to PubChem BioAssay (NCI):
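Cells were grown in 96-well plates and exposed to each compound for 48 hours at five concentrations; endpoints were interpolated linearly between bracketing concentrations, or set to the highest concentration if not reached. GI50 = concentration required for 50% inhibition of growth. TGI is the concentration that stops growth completely.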

Assays:
Assay in all cases: growth of human tumour cells (NCI), 48 h
[1] = system: 786-0 renal
[2] = system: A498 renal
[3] = system: A549 NSCLC
[4] = system: ACHN renal
[5] = system: BT-549 breast
[6] = system: CAKI-1 renal
[7] = system: CCRF-CEM leukemia
[8] = system: COLO 205 colon
[9] = system: DU-145 prostate
[10] = system: EKVX NSCLC
[11] = system: HCC-2998 colon
[12] = system: HCT-116 colon
[13] = system: HCT-15 colon
[14] = system: HL-60(TB) leukemia
[15] = system: HOP-62 NSCLC
[16] = system: HOP-92 NSCLC
[17] = system: HS 578T breast
[18] = system: HT29 colon
[19] = system: IGROV1 ovarian
[20] = system: K-562 leukemia
[21] = system: KM12 colon
[22] = system: LOX IMVI melanoma
[23] = system: M14 melanoma
[24] = system: MALME-3M melanoma
[25] = system: MCF7 breast
[26] = system: MDA-MB-231 breast
[27] = system: MDA-MB-435
[28] = system: MOLT-4 leukemia
[29] = system: NCI-H226 lung
[30] = system: NCI-H23 lung
[31] = system: NCI-H460 lung
[32] = system: NCI-H522 lung
[33] = system: NCI/ADR-RES ovarian
[34] = system: OVCAR-3 ovarian
[35] = system: OVCAR-4 ovarian
[36] = system: OVCAR-5 ovarian
[37] = system: OVCAR-8 ovarian
[38] = system: PC-3 prostate
[39] = system: RPMI-8226 leukemia
[40] = system: RXF 393 renal
[41] = system: SF-268 CNS
[42] = system: SF-295 CNS
[43] = system: SF-539 CNS
[44] = system: SK-MEL-2 melanoma
[45] = system: SK-MEL-28 melanoma
[46] = system: SK-MEL-5 melanoma
[47] = system: SK-OV-3 ovarian
[48] = system: SN12C renal
[49] = system: SNB-19 CNS
[50] = system: SNB-75 CNS
[51] = system: SR leukemia
[52] = system: SW-620 colon
[53] = system: T-47D breast
[54] = system: TK-10 renal
[55] = system: U251 CNS
[56] = system: UACC-257 melanoma
[57] = system: UACC-62 melanoma
[58] = system: UO-31 renal

CC(C)C(=O)Nc1ccc(-c2nc(-c3cccc(O)c3)c(-c3ccnc(Br)c3)[nH]2)cc1
GI50 [1]: 718 nM
TGI [1]: 7630 nM
GI50 [2]: 957 nM
TGI [2]: 5550 nM
GI50 [3]: 1640 nM
TGI [3]: 23600 nM
GI50 [4]: 1700 nM
TGI [4]: 26600 nM
GI50 [5]: 1090 nM
TGI [5]: 7250 nM
GI50 [6]: 932 nM
TGI [6]: 9120 nM
GI50 [7]: 653 nM
TGI [7]: > 100000 nM
GI50 [8]: 1470 nM
TGI [8]: 6940 nM
GI50 [9]: 2540 nM
TGI [9]: 41300 nM
GI50 [10]: 1840 nM
TGI [10]: 25600 nM
GI50 [11]: 1380 nM
TGI [11]: 6710 nM
GI50 [12]: 905 nM
TGI [12]: 7680 nM
GI50 [13]: 1260 nM
TGI [13]: 9760 nM
GI50 [14]: 768 nM
TGI [14]: 2740 nM
GI50 [15]: 1820 nM
TGI [15]: 35200 nM
GI50 [16]: 2170 nM
TGI [16]: 7270 nM
GI50 [17]: 592 nM
TGI [17]: 2320 nM
GI50 [18]: 1400 nM
TGI [18]: > 60100 nM
GI50 [19]: 962 nM
TGI [19]: 5830 nM
GI50 [20]: 601 nM
TGI [20]: > 100000 nM
GI50 [21]: 1290 nM
TGI [21]: 21700 nM
GI50 [22]: 404 nM
TGI [22]: 5710 nM
GI50 [23]: 764 nM
TGI [23]: 8130 nM
GI50 [24]: 919 nM
TGI [24]: 4900 nM
GI50 [25]: 566 nM
TGI [25]: 4510 nM
GI50 [26]: 1610 nM
TGI [26]: 36300 nM
GI50 [27]: 4240 nM
TGI [27]: 20600 nM
GI50 [28]: 835 nM
TGI [28]: 7980 nM
GI50 [29]: 1780 nM
TGI [29]: 8950 nM
GI50 [30]: 1190 nM
TGI [30]: 12900 nM
GI50 [31]: 1450 nM
TGI [31]: 9010 nM
GI50 [32]: 1240 nM
TGI [32]: 9030 nM
GI50 [33]: 18000 nM
TGI [33]: > 100000 nM
GI50 [34]: 1090 nM
TGI [34]: 6600 nM
GI50 [35]: 2850 nM
TGI [35]: 27700 nM
GI50 [36]: 2360 nM
TGI [36]: 59100 nM
GI50 [37]: 1280 nM
TGI [37]: 18600 nM
GI50 [38]: 877 nM
TGI [38]: 8210 nM
GI50 [39]: 830 nM
TGI [39]: 2430 nM
GI50 [40]: 370 nM
TGI [40]: 1320 nM
GI50 [41]: 2830 nM
TGI [41]: 40000 nM
GI50 [42]: 204 nM
TGI [42]: 457 nM
GI50 [43]: 685 nM
TGI [43]: 2890 nM
GI50 [44]: 1640 nM
TGI [44]: 9810 nM
GI50 [45]: 1750 nM
TGI [45]: 23500 nM
GI50 [46]: 1100 nM
TGI [46]: 3240 nM
GI50 [47]: 1890 nM
TGI [47]: 10600 nM
GI50 [48]: 1490 nM
TGI [48]: 34800 nM
GI50 [49]: 1470 nM
TGI [49]: 61200 nM
GI50 [50]: 529 nM
TGI [50]: 2600 nM
GI50 [51]: 1190 nM
TGI [51]: > 100000 nM
GI50 [52]: 1400 nM
TGI [52]: 16200 nM
GI50 [53]: 1090 nM
TGI [53]: 9590 nM
GI50 [54]: 5880 nM
TGI [54]: 36800 nM
GI50 [55]: 1100 nM
TGI [55]: 47900 nM
GI50 [56]: 3470 nM
TGI [56]: 24200 nM
GI50 [57]: 758 nM
TGI [57]: 5370 nM
GI50 [58]: 1040 nM
TGI [58]: 4590 nM
